Experimental data: patent EP0039388A2, “Diagnostic method for the determination of the liver function” (Röhm Pharma GmbH, priority 1980, dated 1981)
Entries after “also recorded” stand apart in the source; their conditions may differ. Read-outs that look alike come from different tables or passages of the source.

Experiments:
Type in all cases: in vivo, Menschen
[1] = Plasma half-lives of TA and OH-TA-Ester after oral triamterene; conditions: for half-life: human, plasma, po, read-out: Plasmahalbwertszeiten (converted)
Description: (§1) Bei dem Test wurde darauf geachtet, daß die Versuchspersonen der gleichen Altersgruppe und dem gleichen Geschlecht angehörten und eine annähernd gleiche Nierenfunktion vorlag. Während der Versuchsperiode waren sie stationär aufgenommen und unterlagen denselben Ernährungsbedingungen. Außer den unumgänglich notwendigen, wurden alle anderen Medikamente, insbesondere Diuretika vor Versuchsbeginn abgesetzt.
Die Plasmahalbwertszeiten wurden nach der Formel t50 % = [formula] berechnet, die Flächen unter den Kurven konnten mit Hilfe der Trapezregel errechnet werden.
Die Plasmaproben werden mit dem doppelten Volumen Methanol verdünnt, das ausfallende Protein ausgefällt. Vom Überstand wird ein definierter Anteil auf Kieselgel-Platten (z. B. Kieselgel-60-Fertigplatten "Merck") ohne Fluoresz.enzindi- kator aufgetragen. Anschließend wird mit dem Fließmittel Essigsäureethylester/Methanol/Ammoniak 25 %ig (60 + 30 + 10) bei Kammersättigung chromatographiert. Danach werden die Platten getrocknet und die Substanzen fluoreszenzspektroskopisch gemessen.

[2] = Ratio of TA to OH-TA-Ester in plasma and/or urine after oral administration of triamterene (liver function test); conditions: for Verhältnis des OH-TA-Esters zu TA: printed as (x):1
Description: Es wurde gefunden, daß sich Einschränkungen der Leberfunktion mit sehr geringem Aufwand und mit großer diagnostischer und analytischer Sicherheit nachweisen lassen, wenn man 2,4,7-Triamino-6-phenylpteridin (Triamteren = TA) dem Patienten oral verabreicht und in geeignetem zeitlichen Abstand das Verhältnis TA zu OH-TA-Ester im Plasma und/oder im Urin des Patienten bestimmt. Bei normaler Leberfunktion beträgt das Verhältnis TA zu OH-TA-Ester 1:3 bis 1:10. […] Man findet demnach je nach Einschränkung der Leberfunktion mehr natives TA als OH-TA-Ester, was als eine direkte Auswirkung der gestörten Funktion der Leber zu metabolischer Umwandlung von körperfremden Stoffen im Organismus und damit als Indikator für die Leberfunktion überhaupt gewertet werden kann.
Die Verabreichung des Triamteren zur erfindungsgemäßen Bestimmung der Leberfunktionseinschränkung geschieht oral. Bei der Herstellung der Verabreichungsformen (Kapseln, Tabletten etc.) und der Verabreichung selbst, kann von den Erfahrungen mit Triamteren als Therapeutikum ausgegangen werden. Die zur Durchführung des erfindungsgemäßen diagnostischen Verfahrens benötigten Mengen an Triamteren können innerhalb gewisser Grenzen schwanken, beispielsweise zwischen 50 und 300 mg, vorzugsweise bis 100 mg. Zur Einhaltung standardisierter Bedingungen kann es zweckmäßig sein, gleichbleibende Quantitäten an Triamteren zu verabreichen. Dabei kann vorteilhaft von bereits auf dem Markt befindlichen Handelsformen (z. B. Kapseln mit 50 mg Triamteren Jatropur^R) Gebrauch gemacht werden.
as §1
Die Plasmahalbwertszeiten wurden nach der Formel t50 % = [formula] berechnet, die Flächen unter den Kurven konnten mit Hilfe der Trapezregel errechnet werden. […]

[3] = Urinary excretion of TA and OH-TA-Ester after oral triamterene
Description: as §1
Die Durchführung des erfindungsgemäßen diagnostischen Verfahrens kann ebenfalls mit dem Urin der Patienten erfolgen. Während einer Versuchsdauer von 5 Tagen konnte TA und der OH-TA-Ester nachgewiesen werden.
Analog kann auch die Konzentration von TA und OH-TA-Ester im Urin bestimmt werden.

SMILES | Plasmahalbwertszeiten, change in Leberzirrhotiker versus Lebergesunde ([1]; Leberzirrhotiker compared with Lebergesunde) | Verhältnis des OH-TA-Esters zu TA ([2]; Lebergesunde) | Verhältnis des OH-TA-Esters zu TA ([2]; Leberzirrhotiker, ratio reversed in one cirrhotic) | Konzentration des OH-TA-Esters in Plasma höher als die der nativen Substanz Triamteren (TA) ([2]; subjects with healthy liver, plasma, fold over TA) | Ausscheidung im Harn beendet ([3]; Lebergesunde, time after which excretion has ended) [Stunden] | Ausscheidung im Harn nicht völlig abgeschlossen ([3]; Leberzirrhotiker, excretion still not fully complete at this time) [Tagen] | Nachweis im Urin ([3]; patients' urine, test duration of 5 days) | half-life ([1]; Lebergesunde) [h] | half-life ([1]; Leberzirrhotiker, average) [h] | Ausscheidung im Harn beendet ([3]; in vivo) [Stunden] | Ausscheidung im Harn nicht völlig abgeschlossen ([3]; in vivo) [Tagen]
Nc1nc(N)c2nc(-c3ccc(OS(=O)(=O)O)cc3)c(N)nc2n1 [OH-TA-Ester] | auf das Doppelte verlängert; also recorded: deutlich erhöht, beispielsweise verdoppelt | 4-10 | 1-3,2 | vier- bis zwölffache | 72 | > 5 | nachgewiesen | – | – | – | –
Nc1nc(N)c2nc(-c3ccccc3)c(N)nc2n1 [TA, 2,4,7-Triamino-6-phenylpteridin] | – | – | – | – | – | – | – | ~5.5 | 11.2 | 72 | > 5
